Data: US10730874B2 (Shire Human Genetic Therapies, Inc., priority 2018, dated 2020)

These molecules were tested against human activated kallikrein enzyme (plasma kallikrein) (Homo sapiens (Human), UniProt P03952) (assay: Inhibition of human activated plasma kallikrein, fluorogenic peptide substrate assay, 500 pM enzyme format). Details: 500 pM activated kallikrein enzyme, 300 uM Pro-Phe-Arg-7-amido-4-methylcoumarin substrate, 30 min preincubation, 10 min at RT; read-out: Primary Dose Response Assay: Average EC50.
human activated kallikrein enzyme (plasma kallikrein), sequence (P03952 391-638): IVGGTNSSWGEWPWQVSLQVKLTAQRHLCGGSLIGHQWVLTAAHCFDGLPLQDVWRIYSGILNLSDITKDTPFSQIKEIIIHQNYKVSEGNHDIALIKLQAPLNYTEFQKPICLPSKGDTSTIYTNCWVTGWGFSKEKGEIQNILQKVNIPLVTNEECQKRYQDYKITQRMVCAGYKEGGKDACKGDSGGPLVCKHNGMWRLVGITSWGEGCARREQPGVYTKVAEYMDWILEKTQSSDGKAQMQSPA
human activated kallikrein enzyme (plasma kallikrein), sequence (P03952 20-390 partner): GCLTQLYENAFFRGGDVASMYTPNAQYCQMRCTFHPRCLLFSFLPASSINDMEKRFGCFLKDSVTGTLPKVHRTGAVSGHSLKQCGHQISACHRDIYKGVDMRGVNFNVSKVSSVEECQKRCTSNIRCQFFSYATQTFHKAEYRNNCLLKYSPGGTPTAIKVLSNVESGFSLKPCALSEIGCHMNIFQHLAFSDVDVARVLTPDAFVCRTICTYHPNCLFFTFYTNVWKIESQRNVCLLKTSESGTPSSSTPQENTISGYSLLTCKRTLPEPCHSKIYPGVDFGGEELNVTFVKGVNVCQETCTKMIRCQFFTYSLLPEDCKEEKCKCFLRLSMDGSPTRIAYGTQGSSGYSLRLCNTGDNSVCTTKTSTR
Type: biochemical
Method in brief: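 Buffer 20 mM Tris pH 7.5, EDTA, NaCl, PEG-400, Triton X-100; 300 uM Pro-Phe-Arg-AMC; enzyme–inhibitor preincubation 30 min RT. Format one: 500 pM kallikrein, 10 min RT reaction; format two: 5 pM kallikrein, 18 h RT reaction. Fluorescence read at 460 nm (380 nm excitation).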

Structure (SMILES)	EC50 [nM]
COC(=O)c1ccc2nc(Cn3cc(C(=O)NCc4ncn5ccc(Cl)cc45)cn3)cn2c1 [Example I-91, methyl 2-((4-(((7-chloroimidazo[1,5-a]pyridin-1-yl)methyl)carbamoyl)-1H-pyrazol-1-yl)methyl)imidazo[1,2-a]pyridine-6-carboxylate]	10 to 100
O=C(NCc1ncn2ccc(Br)c(F)c12)c1nnc(Cc2cn3nc(C4CC4)ccc3n2)o1 [Example I-140, N-((7-bromo-8-fluoroimidazo[1,5-a]pyridin-1-yl)methyl)-5-((6-cyclopropylimidazo[1,2-b]pyridazin-2-yl)methyl)-1,3,4-oxadiazole-2-carboxamide]	< 1
CC(C)(O)Cc1cc(C2CC2)cn2cc(Cn3cc(C(=O)NCc4ncn5ccc(Cl)cc45)cn3)nc12 [Example I-109, N-((7-chloroimidazo[1,5-a]pyridin-1-yl)methyl)-1-((6-cyclopropyl-8-(2-hydroxy-2-methylpropyl)imidazo[1,2-a]pyridin-2-yl)methyl)-1H-pyrazole-4-carboxamide]	< 1
CCOC(=O)c1cc(C2CC2)cn2cc(Cn3cc(C(=O)NCc4ncn5ccc(Cl)c(F)c45)nn3)nc12 [Example I-166a, ethyl 2-((4-(((7-chloro-8-fluoroimidazo[1,5-a]pyridin-1-yl)methyl)carbamoyl)-1H-1,2,3-triazol-1-yl)methyl)-6-cyclopropylimidazo[1,2-a]pyridine-8-carboxylate]	< 1
O=C(NCc1ncn2ccc(Cl)cc12)c1cnn(Cc2cn3cc(C4CC4)cc(CCCO)c3n2)c1 [Example I-107, N-((7-chloroimidazo[1,5-a]pyridin-1-yl)methyl)-1-((6-cyclopropyl-8-(3-hydroxypropyl)imidazo[1,2-a]pyridin-2-yl)methyl)-1H-pyrazole-4-carboxamide]	< 1
O=C(NCc1ncn2ccc(Cl)c(F)c12)c1cn(Cc2cn3cc(C4CC4)ccc3n2)nn1 [Example I-148, N-((7-chloro-8-fluoroimidazo[1,5-a]pyridin-1-yl)methyl)-1-((6-cyclopropylimidazo[1,2-a]pyridin-2-yl)methyl)-1H-1,2,3-triazole-4-carboxamide]	< 1
O=C(NCc1ncn2ccc(Cl)cc12)c1cnn(Cc2ccc3ncc(Cl)cc3c2)c1 [Example I-1, N-((7-chloroimidazo[1,5-a]pyridin-1-yl)methyl)-1-((3-chloroquinolin-6-yl)methyl)-1H-pyrazole-4-carboxamide]	10 to 100
O=C(NCc1ncn2ccc(Cl)cc12)c1cn(Cc2cn3cc(C4CC4)ccc3n2)nc1C1CC1 [Example I-78, N-((7-chloroimidazo[1,5-a]pyridin-1-yl)methyl)-3-cyclopropyl-1-((6-cyclopropylimidazo[1,2-a]pyridin-2-yl)methyl)-1H-pyrazole-4-carboxamide]	< 1
Cc1ccc2nc(Cn3cc(C(=O)NCc4ncn5ccc(Cl)cc45)cn3)cn2c1 [Example I-64, N-((7-chloroimidazo[1,5-a]pyridin-1-yl)methyl)-1-((6-methylimidazo[1,2-a]pyridin-2-yl)methyl)-1H-pyrazole-4-carboxamide]	1 to 10
O=C(NCc1ncn2ccc(Cl)cc12)c1cnn(Cc2cn3cc(C4CC4)cc(Cc4nnco4)c3n2)c1 [Example I-155, 1-((8-((1,3,4-oxadiazol-2-yl)methyl)-6-cyclopropylimidazo[1,2-a]pyridin-2-yl)methyl)-N-((7-chloroimidazo[1,5-a]pyridin-1-yl)methyl)-1H-pyrazole-4-carboxamide]	< 1
O=C(NCc1ncn2ccc(Cl)c(F)c12)c1cn(Cc2cn3cc(C4CC4)cc(C(F)(F)F)c3n2)nn1 [Example I-185, N-((7-chloro-8-fluoroimidazo[1,5-a]pyridin-1-yl)methyl)-1-((6-cyclopropyl-8-(trifluoromethyl)imidazo[1,2-a]pyridin-2-yl)methyl)-1H-1,2,3-triazole-4-carboxamide]	< 1
O=C(NCc1ncn2ccc(Cl)cc12)c1nnc(Cc2cn3cc(C4CC4)ccc3n2)[nH]1 [Example I-161, N-((7-chloroimidazo[1,5-a]pyridin-1-yl)methyl)-5-((6-cyclopropylimidazo[1,2-a]pyridin-2-yl)methyl)-4H-1,2,4-triazole-3-carboxamide]	1 to 10
CCOC(=O)CCc1nn(Cc2cn3cc(C4CC4)ccc3n2)cc1C(=O)NCc1ncn2ccc(Cl)cc12 [Example I-93, ethyl 3-(4-(((7-chloroimidazo[1,5-a]pyridin-1-yl)methyl)carbamoyl)-1-((6-cyclopropylimidazo[1,2-a]pyridin-2-yl)methyl)-1H-pyrazol-3-yl)propanoate]	< 1
O=C(NCc1ncn2ccc(Cl)c(F)c12)c1cn(Cc2cn3cc(C4CC4)cc(F)c3n2)nn1 [Example I-171, N-((7-chloro-8-fluoroimidazo[1,5-a]pyridin-1-yl)methyl)-1-((6-cyclopropyl-8-fluoroimidazo[1,2-a]pyridin-2-yl)methyl)-1H-1,2,3-triazole-4-carboxamide]	< 1
O=C(NCc1ncn2ccc(Br)cc12)c1cnn(Cc2cc3cc(C4CC4)ccn3n2)c1 [Example I-56, N-((7-bromoimidazo[1,5-a]pyridin-1-yl)methyl)-1-((5-cyclopropylpyrazolo[1,5-a]pyridin-2-yl)methyl)-1H-pyrazole-4-carboxamide]	1 to 10
O=C(NCc1ncn2ccc(Cl)c(F)c12)c1cnn(Cc2cn3cc(C4CC4)ccc3n2)c1 [Example I-147, N-((7-chloro-8-fluoroimidazo[1,5-a]pyridin-1-yl)methyl)-1-((6-cyclopropylimidazo[1,2-a]pyridin-2-yl)methyl)-1H-pyrazole-4-carboxamide]	< 1
O=C(NCc1ncn2ccc(Cl)c(F)c12)c1coc(Cc2cn3cc(C4CC4)ccc3n2)n1 [Example I-196, N-((7-chloro-8-fluoroimidazo[1,5-a]pyridin-1-yl)methyl)-2-((6-cyclopropylimidazo[1,2-a]pyridin-2-yl)methyl)oxazole-4-carboxamide]	1 to 10

Other lines, results leading:

EC50 [nM]	Structure (SMILES)
< 1	CC(Cc1cc(C2CC2)cn2cc(Cn3cc(C(=O)NCc4ncn5ccc(Cl)c(F)c45)nn3)nc12)C(=O)O (stereo not drawn) [Example I-245b, 3-(2-((4-(((7-chloro-8-fluoroimidazo[1,5-a]pyridin-1-yl)methyl)carbamoyl)-1H-1,2,3-triazol-1-yl)methyl)-6-cyclopropylimidazo[1,2-a]pyridin-8-yl)-2-methylpropanoic acid]
< 1	O=C(O)CCn1c(Cn2cc(C(=O)NCc3ncn4ccc(Cl)c(F)c34)nn2)cc2cc(C3CC3)ccc21 [Example I-251b, 3-(2-((4-(((7-chloro-8-fluoroimidazo[1,5-a]pyridin-1-yl)methyl)carbamoyl)-1H-1,2,3-triazol-1-yl)methyl)-5-cyclopropyl-1H-indol-1-yl)propanoic acid]
1 to 10	O=C(NCc1ncn2ccc(Cl)c(F)c12)c1cn(Cc2cc3ncc(C4CC4)cn3n2)nn1 [Example I-209, N-((7-chloro-8-fluoroimidazo[1,5-a]pyridin-1-yl)methyl)-1-((6-cyclopropylpyrazolo[1,5-a]pyrimidin-2-yl)methyl)-1H-1,2,3-triazole-4-carboxamide]
< 1	O=C(O)c1ccn(Cc2cc(C3CC3)cn3cc(Cn4cc(C(=O)NCc5ncn6ccc(Cl)c(F)c56)nn4)nc23)n1 [Example I-202, 1-((2-((4-(((7-chloro-8-fluoroimidazo[1,5-a]pyridin-1-yl)methyl)carbamoyl)-1H-1,2,3-triazol-1-yl)methyl)-6-cyclopropylimidazo[1,2-a]pyridin-8-yl)methyl)-1H-pyrazole-3-carboxylic acid]
< 1	CN(C)CCOCc1cc(C2CC2)cn2cc(Cn3cc(C(=O)NCc4ncn5ccc(Cl)c(F)c45)nn3)nc12 [Example I-299, N-((7-chloro-8-fluoroimidazo[1,5-a]pyridin-1-yl)methyl)-1-((6-cyclopropyl-8-((2-(dimethylamino)ethoxy)methyl)imidazo[1,2-a]pyridin-2-yl)methyl)-1H-1,2,3-triazole-4-carboxamide]
1 to 10	Cc1c(C)n(C)c2ccc(Cn3cc(C(=O)NCc4ncn5ccc(Cl)c(F)c45)nn3)cc12 [Example I-269, N-((7-chloro-8-fluoroimidazo[1,5-a]pyridin-1-yl)methyl)-1-((1,2,3-trimethyl-1H-indol-5-yl)methyl)-1H-1,2,3-triazole-4-carboxamide]
10 to 100	O=C(O)Cn1c(Cn2cc(C(=O)NCc3ncn4ccc(Cl)c(F)c34)nn2)cc2cc(C3CC3)ccc21 [Example I-244, 2-(2-((4-(((7-chloro-8-fluoroimidazo[1,5-a]pyridin-1-yl)methyl)carbamoyl)-1H-1,2,3-triazol-1-yl)methyl)-5-cyclopropyl-1H-indol-1-yl)acetic acid]
< 1	O=C(NCc1ncn2ccc(Cl)c(F)c12)c1cn(Cc2cn3cc(C4CC4)cc(N4CCCC4=O)c3n2)nn1 [Example I-203, N-((7-chloro-8-fluoroimidazo[1,5-a]pyridin-1-yl)methyl)-1-((6-cyclopropyl-8-(2-oxopyrrolidin-1-yl)imidazo[1,2-a]pyridin-2-yl)methyl)-1H-1,2,3-triazole-4-carboxamide]
10 to 100	O=C(NCc1ncn2ccc(Cl)c(F)c12)c1cn(Cc2nc3ccc(C4CC4)cc3s2)nn1 [Example I-252, N-((7-chloro-8-fluoroimidazo[1,5-a]pyridin-1-yl)methyl)-1-((6-cyclopropylbenzo[d]thiazol-2-yl)methyl)-1H-1,2,3-triazole-4-carboxamide]

Same assay, conditions: comparative compounds (Table II); assay format with 500 pM (500 μM in the source) activated kallikrein; read-out: Primary Dose Response Assay: Average EC50

Structure (SMILES)	EC50 [nM]
O=C(NCc1nnc2ccc(Cl)cn12)c1cnn(Cc2cn3cc(C4CC4)ccc3n2)c1 [reference compound]	100 to 2000
